pIC50: −log10 of the molar value. Counter-ions that a name gives are not always drawn.

In this assay the target is T1, rat NaPi-2b (Rattus norvegicus, UniProt Q9JJ09).
T1 construct: expressed in transfected cells; host or cells: Xenopus oocytes injected with cRNA
T1 sequence (Q9JJ09 1-695): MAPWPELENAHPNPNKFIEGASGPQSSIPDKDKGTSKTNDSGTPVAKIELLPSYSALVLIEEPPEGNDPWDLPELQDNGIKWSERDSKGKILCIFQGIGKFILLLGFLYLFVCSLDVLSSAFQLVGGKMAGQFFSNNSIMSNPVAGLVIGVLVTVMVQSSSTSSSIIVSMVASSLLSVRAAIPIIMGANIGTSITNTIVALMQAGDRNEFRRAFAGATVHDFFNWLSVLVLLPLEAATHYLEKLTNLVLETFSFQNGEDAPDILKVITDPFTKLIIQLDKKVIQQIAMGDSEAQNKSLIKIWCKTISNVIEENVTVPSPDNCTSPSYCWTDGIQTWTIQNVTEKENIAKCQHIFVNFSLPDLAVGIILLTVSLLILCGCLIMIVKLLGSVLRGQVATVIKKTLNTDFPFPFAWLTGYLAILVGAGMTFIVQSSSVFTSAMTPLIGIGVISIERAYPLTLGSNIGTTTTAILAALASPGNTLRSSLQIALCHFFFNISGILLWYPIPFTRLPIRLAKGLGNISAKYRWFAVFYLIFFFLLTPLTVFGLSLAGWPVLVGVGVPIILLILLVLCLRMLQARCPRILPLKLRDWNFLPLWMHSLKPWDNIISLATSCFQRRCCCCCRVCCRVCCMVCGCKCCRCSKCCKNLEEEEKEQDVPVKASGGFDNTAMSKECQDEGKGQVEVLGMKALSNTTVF
Kind of assay: Sodium-dependent phosphate uptake of Xenopus oocytes which expressed NaPi-2b (32P). The class given is cell-based. Conditions: Xenopus oocytes expressing rat NaPi-2b, 32P radioactive phosphorus; read-out: IC50 (phosphate uptake inhibitory activity). The method, boiled down: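 Percent inhibition at 300 μM and 100 μM comes from the same inhibition curve of 32P uptake. Assay used oocytes expressing rat NaPi-2b after 2 days of culture.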

The pIC50 is −log10 of the IC50, conventionally taken in molar units. With `Cc1ccc(/C=N/NC(=O)c2c(NC(=O)c3cccc(CN(CC(C)O)CC(C)O)c3)sc(C)c2C)cc1C` (stereo not drawn) [Compound 844, 3-{[Bis-(2-hydroxy-propyl)-amino]-methyl}-N-[3-(3,4-dimethyl-benzylidene-hydrazinocarbonyl)-4,5-dimethyl-thiophen-2-yl]-benzamide], the pIC50 is greater than 5.52. Next, `Cc1sc(NC(=O)c2cccc(CN(CC(C)O)CC(C)O)c2)c(C(=O)N/N=C/c2ccc(Cl)c(C(F)(F)F)c2)c1C` (stereo not drawn) [Compound 847, 3-{[Bis-(2-hydroxy-propyl)-amino]-methyl}-N-[3-(4-chloro-3-trifluoromethyl-benzylidene-hydrazinocarbonyl)-4,5-dimethyl-thiophen-2-yl]-benzamide]: greater than 5.52. As to `COc1ccc(/C=N/NC(=O)c2c(NC(=O)c3cccc(CN(CC(C)O)CC(C)O)c3)sc(C)c2C)cc1` (stereo not drawn) [Compound 848, 3-{[Bis-(2-hydroxy-propyl)-amino]-methyl}-N-[3-(4-methoxy-benzylidene-hydrazinocarbonyl)-4,5-dimethyl-thiophen-2-yl]-benzamide], the pIC50 was 5.66. To `CCN(CC)CCN(CCN(CC)CC)Cc1cccc(C(=O)Nc2sc3c(c2C(=O)N/N=C/c2ccc(Cl)c(C(F)(F)F)c2)CCCC3)c1` [Compound 849, 3-{[Bis-(2-diethylamino-ethyl)-amino]-methyl}-N-[3-(4-chloro-3-trifluoromethyl-benzylidene-hydrazinocarbonyl)-4,5,6,7-tetrahydro-benzo[b]thiophen-2-yl]-benzamide] belongs greater than 5.52. Consider `CCN(CC)CCN(CCN(CC)CC)Cc1cccc(C(=O)Nc2sc3c(c2C(=O)N/N=C/c2ccc(OC)cc2)CCCC3)c1` [Compound 850, 3-{[Bis-(2-diethylamino-ethyl)-amino]-methyl}-N-[3-(4-methoxy-benzylidene-hydrazinocarbonyl)-4,5,6,7-tetrahydro-benzo[b]-thiophen-2-yl]-benzamide], for which the pIC50 is 5.51. For the compound `Cc1csc(NC(=O)c2cccc(CN(CC(C)O)CC(C)O)c2)c1C(=O)N/N=C/c1ccc(Cl)c(C(F)(F)F)c1` (stereo not drawn) [Compound 851, 3-{[Bis-(2-hydroxy-propyl)-amino]-methyl}-N-[3-(4-chloro-3-trifluoromethyl-benzylidene-hydrazinocarbonyl)-4-methyl-thiophen-2-yl]-benzamide; hydrochloride], the pIC50 is 5.87. On to `COc1ccc(/C=N/NC(=O)c2c(C)csc2NC(=O)c2cccc(CN(CC(C)O)CC(C)O)c2)cc1` (stereo not drawn) [Compound 852, 3-{[Bis-(2-hydroxy-propyl)-amino]-methyl}-N-[3-(4-methoxy-benzylidene-hydrazinocarbonyl)-4-methyl-thiophen-2-yl]-benzamide; hydrochloride], for which the pIC50 was greater than 6.00. To `CC(O)CN(Cc1cccc(C(=O)Nc2ccc(F)cc2C(=O)N/N=C/c2ccc(Cl)c(C(F)(F)F)c2)c1)CC(C)O` (stereo not drawn) [Compound 853, 3-{[Bis-(2-hydroxy-propyl)-amino]-methyl}-N-[2-(4-chloro-3-trifluoromethyl-benzylidene-hydrazinocarbonyl)-4-fluoro-phenyl]-benzamide; hydrochloride] belongs 5.67.

Turning to `COc1ccc(/C=N/NC(=O)c2cc(F)ccc2NC(=O)c2cccc(CN(CC(C)O)CC(C)O)c2)cc1` (stereo not drawn) [Compound 854, 3-{[Bis-(2-hydroxy-propyl)-amino]-methyl}-N-[4-fluoro-2-(4-methoxy-benzylidene-hydrazinocarbonyl)-phenyl]-benzamide; hydrochloride], the pIC50 was 5.88.

Regarding `CCN(CC)CCN(CCN(CC)CC)Cc1cccc(C(=O)Nc2sc3c(c2C(=O)N/N=C/c2ccc(Cl)c(C(F)(F)F)c2)CCCC3)c1` [Compound 855, 3-{[Bis-(2-diethylamino-ethyl)-amino]-methyl}-N-[3-(4-chloro-3-trifluoromethyl-benzylidene-hydrazinocarbonyl)-4,5,6,7-tetrahydro-benzo[b]thiophen-2-yl]-benzamide; hydrochloride], the pIC50 is 5.76. For the compound `CCN(CC)CCN(CCN(CC)CC)Cc1cccc(C(=O)Nc2sc3c(c2C(=O)N/N=C/c2ccc(OC)cc2)CCCC3)c1` [Compound 856, 3-{[Bis-(2-diethylamino-ethyl)-amino]-methyl}-N-[3-(4-methoxy-benzylidene-hydrazinocarbonyl)-4,5,6,7-tetrahydro-benzo[b]thiophen-2-yl]-benzamide; hydrochloride], the negative-log IC50 (pIC50) was 5.75.

As to `CC(O)CN(Cc1cccc(C(=O)Nc2ccc(F)cc2C(=O)N/N=C/c2ccc(Cl)c(C(F)(F)F)c2)c1)CC(C)O` (stereo not drawn) [Compound 857, 3-{[Bis-(2-hydroxy-propyl)-amino]-methyl}-N-[2-(4-chloro-3-trifluoromethyl-benzylidene-hydrazinocarbonyl)-4-fluoro-phenyl]-benzamide], the pIC50 is 5.93.

Turning to `O=C(Nc1ccc(N2CCCCC2)cc1C(=O)N/N=C/c1ccc(F)cc1)c1cccc(CN2CCN(CCO)CC2)c1` [Compound 866, N-[2-(4-Fluoro-benzylidene-hydrazinocarbonyl)-4-piperidin-1-yl-phenyl]-3-[4-(2-hydroxy-ethyl)-piperazin-1-ylmethyl]-benzamide], the negative-log IC50 (pIC50) was 5.72. For the compound `O=C(Nc1ccc(N2CCCCC2)cc1C(=O)N/N=C/c1cccc(F)c1)c1cccc(CN2CCN(CCO)CC2)c1` [Compound 867, N-[2-(3-Fluoro-benzylidene-hydrazinocarbonyl)-4-piperidin-1-yl-phenyl]-3-[4-(2-hydroxy-ethyl)-piperazin-1-ylmethyl]-benzamide], the pIC50 is 5.65.

Regarding `O=C(Nc1ccc(N2CCCCC2)cc1C(=O)N/N=C/c1ccc(Cl)c(C(F)(F)F)c1)c1cccc(CN2CCN(CCO)CC2)c1` [Compound 868, N-[2-(4-Chloro-3-trifluoromethyl-benzylidene-hydrazinocarbonyl)-4-piperidin-1-yl-phenyl]-3-[4-(2-hydroxy-ethyl)-piperazin-1-ylmethyl]-benzamide], the pIC50 was greater than 6.52.

Consider `COc1ccc(/C=N/NC(=O)c2cc(N3CCCCC3)ccc2NC(=O)c2cccc(CN3CCN(CCO)CC3)c2)cc1` [Compound 869, 3-[4-(2-Hydroxy-ethyl)-piperazin-1-ylmethyl]-N-[2-(4-methoxy-benzylidene-hydrazinocarbonyl)-4-piperidin-1-yl-phenyl]-benzamide], for which the pIC50 is 5.18.

As to `Cc1ccc(/C=N/NC(=O)c2cc(N3CCCCC3)ccc2NC(=O)c2cccc(CN3CCC(O)CC3)c2)cc1C` [Compound 870, N-[2-(3,4-Dimethyl-benzylidene-hydrazinocarbonyl)-4-piperidin-1-yl-phenyl]-3-(4-hydroxy-piperidin-1-ylmethyl)-benzamide], the pIC50 is 6.28. Next, `Cc1ccc(/C=N/NC(=O)c2cc(N3CCCCC3)ccc2NC(=O)c2cccc(CN3CCC(O)CC3)c2)cc1` [Compound 871, 3-(4-Hydroxy-piperidin-1-ylmethyl)-N-[2-(4-methyl-benzylidene-hydrazinocarbonyl)-4-piperidin-1-yl-phenyl]-benzamide]: 6.00; `O=C(Nc1ccc(N2CCCCC2)cc1C(=O)N/N=C/c1ccc(F)cc1)c1cccc(CN2CCC(O)CC2)c1` [Compound 872, N-[2-(4-Fluoro-benzylidene-hydrazinocarbonyl)-4-piperidin-1-yl-phenyl]-3-(4-hydroxy-piperidin-1-ylmethyl)-benzamide]: greater than 5.52; `O=C(Nc1ccc(N2CCCCC2)cc1C(=O)N/N=C/c1cccc(F)c1)c1cccc(CN2CCC(O)CC2)c1` [Compound 873, N-[2-(3-Fluoro-benzylidene-hydrazinocarbonyl)-4-piperidin-1-yl-phenyl]-3-(4-hydroxy-piperidin-1-ylmethyl)-benzamide]: 6.18. Regarding `O=C(Nc1ccc(N2CCCCC2)cc1C(=O)N/N=C/c1ccc(Cl)c(C(F)(F)F)c1)c1cccc(CN2CCC(O)CC2)c1` [Compound 874, N-[2-(4-Chloro-3-trifluoromethyl-benzylidene-hydrazinocarbonyl)-4-piperidin-1-yl-phenyl]-3-(4-hydroxy-piperidin-1-ylmethyl)-benzamide], the pIC50 is greater than 6.52. With `COc1ccc(/C=N/NC(=O)c2cc(N3CCCCC3)ccc2NC(=O)c2cccc(CN3CCC(O)CC3)c2)cc1` [Compound 875, 3-(4-Hydroxy-piperidin-1-ylmethyl)-N-[2-(4-methoxy-benzylidene-hydrazinocarbonyl)-4-piperidin-1-yl-phenyl]-benzamide], the pIC50 was 5.28. Take `CCN(CC)CCSCc1cccc(C(=O)Nc2ccc(N3CCCCC3)cc2C(=O)N/N=C/c2ccc(C)c(C)c2)c1` [Compound 876, 3-(2-Diethylamino-ethylsulfanylmethyl)-N-[2-(3,4-dimethyl-benzylidene-hydrazinocarbonyl)-4-piperidin-1-yl-phenyl]-benzamide]: the pIC50 is greater than 5.52.

Turning to `CCN(CC)CCSCc1cccc(C(=O)Nc2ccc(N3CCCCC3)cc2C(=O)N/N=C/c2ccc(F)cc2)c1` [Compound 877, 3-(2-Diethylamino-ethylsulfanylmethyl)-N-[2-(4-fluoro-benzylidene-hydrazinocarbonyl)-4-piperidin-1-yl-phenyl]-benzamide], the pIC50 is greater than 6.52.

The values are drawn from patent US8134015B2, “Compound inhibiting in vivo phosphorous transport and medicine containing the same” (Kyowa Hakko Kirin Co., Ltd., priority 2003, dated 2012).
